Data: article PMC3979046 (Breast Cancer Research : BCR, 2013)
Read-outs that look alike come from different tables or passages of the source.

Columns and labels:
[1] = test system: HER2+ metastatic breast cancer patients refractory to trastuzumab; parameters: method as in PMID 22689807; settings: phase 3 trial, 296 patients, no chemotherapy ref 21; cited from earlier work
[2] = prior phase 1 studies ref 13; cited from earlier work
[3] = test system: recombinant human AKT1, AKT2 and AKT3; settings: cited from earlier work
cytochrome p450 3A4 = settings: cited from earlier work
[4] = Plasma pharmacokinetics of MK-2206 given with trastuzumab; settings: for Tmax: human, plasma, oral
[5] = test system: patients with solid tumors; parameters: method as in PMID 22025163; settings: cited from earlier work
[6] = test system: patients with HER2+ solid tumors; settings: in combination with trastuzumab, true MTD not established
Experimental: This phase 1, multicenter, open-label, nonrandomized, dose-defining study was conducted in accordance with the Declaration of Helsinki and the International Conference on Harmonisation Good Clinical Practice Guidelines, and was approved by relevant regulatory and independent ethics committees including Memorial Sloan-Kettering Cancer Center’s Institutional Review Board, Mofftt Cancer Center’s Quorum Review Institutional Review Board, and The National Research Ethics Service, The Royal Marsden Research Ethics Committee. Patients provided written consent prior to enrolling in the trial. […] Dose finding was based on toxicity probability intervals. In brief, three patients were first dosed at each level and advanced according to the toxicity probability interval; up to another 10 patients (total of 13 patients at a dose level) could be assigned to one dose, in which case up to four DLT events in the dose level of 13 patients would be considered tolerable. […] Correlation of antitumor activity with PI3K pathway activation events (that is, circulating tumor DNA and mutations) was an exploratory objective of this trial.
Patients were evaluated at baseline and throughout the course of the study using physical examinations, vital signs, ophthalmologic examinations, 12-lead electrocardiogram cardiac monitoring, laboratory tests, and Eastern Cooperative Oncology Group performance status.

HER3 = test system: HER3; parameters: method as in PMID 21215704; settings: via feedback mechanisms ref 11; cited from earlier work
[7] = human, in vivo

In the case of CS(=O)(=O)CCNCc1ccc(-c2ccc3ncnc(Nc4ccc(OCc5cccc(F)c5)c(Cl)c4)c3c2)o1 [lapatinib], the median progression-free survival [1] is listed as 8.1 weeks.
For NC1(c2ccc(-c3nc4ccn5c(=O)[nH]nc5c4cc3-c3ccccc3)cc2)CCC1 [MK-2206], the dose proportionality [2] is listed as “no substantial departure from dose proportionality”, the off-target kinase activity [3] is listed as “little off-target kinase activities” and the “relative potency against AKT isoforms” value ([3]; recombinant human isoforms ref 12) is listed as “higher potency against recombinant human AKT1 and AKT2 isoforms than AKT3”. The metabolizing enzyme (cytochrome p450 3A4) was “metabolized by cytochrome p450 3A4”, the “patients with trough level at or above the clinical monotherapy efficacy trough target of 56.8 nM” value ([4]; 45 mg or 60 mg QOD with trastuzumab) was 11/11 and the “geometric mean ratio of Cmax (last dose/first dose)” value ([4]; 200 mg QW, multiple dosing for 21 to 22 days) was 1.30. For the same compound, the Tmax [4] was 4 to 6 h, the Tmax ([4]; median time to maximum concentration, 135 mg and 200 mg QW with trastuzumab) was 4 to 8 h and the “most significant dose-limiting toxicity (DLT)” value ([5]; monotherapy ref 13) was “rash”. For the same compound, the “maximum tolerable dose (MTD)” value ([5]; monotherapy, QOD ref 13) was 60 mg, the “maximum tolerable dose (MTD), expected” value ([5]; monotherapy, QW, not established due to early discontinuation ref 13) was “less than 250 mg” and the “maximum tolerated dose (MTD)” value ([6]; QOD schedule) was 60 mg. For the same compound, the “maximum tolerated dose (MTD)” value ([6]; QW schedule) was 135 mg, the “effect on HER3” value (HER3) was “upregulate HER3” and the “patients achieving the 48-hour target of at least 56.8 nM” value [7] was ~ 92%.
